# Source: ChEMBL document CHEMBL4842347, “Structure-activity relationship and biochemical evaluation of novel fibroblast activation protein and prolyl endopeptidase inhibitors with α-ketoamide warheads” (Eur J Med Chem, 2021)
# Calls of active or inactive are those of the source. The calls are words filed in the database; no cut-off is given here.
# Columns and labels:
# HepG2 = experiment: Cytotoxicity against human HepG2 cells assessed as reduction in cell viability incubated for 72 hrs measured by […]-based colorimetric assay; format: functional
# [1] = Inhibition of PREP (unknown origin) using fluorogenic substrate by spectrometric assay; set-up: species or system Homo sapiens
# [2] = Drug degradation in mouse liver microsomes measured up to 1 min incubated for 2 hrs by LC/MS-MS analysis; format: ADME, Microsome
# HeLa = experiment: Cytotoxicity against human HeLa cells assessed as reduction in cell viability incubated for 72 hrs measured by […]-based colorimetric assay; format: functional
# HL-60 = experiment: Cytotoxicity against human HL-60 cells assessed as reduction in cell viability incubated for 72 hrs measured by […]-based colorimetric assay; format: functional
# CCRF-CEM = experiment: Cytotoxicity against human CCRF-CEM cells assessed as reduction in cell viability incubated for 72 hrs measured by […]-based colorimetric assay; format: functional
# [3] = Metabolic stability in human plasma incubated for 2 hrs by LC/MS-MS analysis; format: ADME, cell-free
# [4] = Drug degradation in human plasma measured up to 1 min incubated for 2 hrs by LC/MS-MS analysis; format: ADME, cell-free
# Dipeptidyl peptidase 4 = Dipeptidyl peptidase 4 (Homo sapiens, UniProt P27487); experiment: Inhibition of SF-tagged DPP4 (unknown origin) expressed in Drosophila S2 cells using fluorogenic substrate by spectrometric analysis; format: cell-based
# Sequence of Dipeptidyl peptidase 4 (P27487 whole entry): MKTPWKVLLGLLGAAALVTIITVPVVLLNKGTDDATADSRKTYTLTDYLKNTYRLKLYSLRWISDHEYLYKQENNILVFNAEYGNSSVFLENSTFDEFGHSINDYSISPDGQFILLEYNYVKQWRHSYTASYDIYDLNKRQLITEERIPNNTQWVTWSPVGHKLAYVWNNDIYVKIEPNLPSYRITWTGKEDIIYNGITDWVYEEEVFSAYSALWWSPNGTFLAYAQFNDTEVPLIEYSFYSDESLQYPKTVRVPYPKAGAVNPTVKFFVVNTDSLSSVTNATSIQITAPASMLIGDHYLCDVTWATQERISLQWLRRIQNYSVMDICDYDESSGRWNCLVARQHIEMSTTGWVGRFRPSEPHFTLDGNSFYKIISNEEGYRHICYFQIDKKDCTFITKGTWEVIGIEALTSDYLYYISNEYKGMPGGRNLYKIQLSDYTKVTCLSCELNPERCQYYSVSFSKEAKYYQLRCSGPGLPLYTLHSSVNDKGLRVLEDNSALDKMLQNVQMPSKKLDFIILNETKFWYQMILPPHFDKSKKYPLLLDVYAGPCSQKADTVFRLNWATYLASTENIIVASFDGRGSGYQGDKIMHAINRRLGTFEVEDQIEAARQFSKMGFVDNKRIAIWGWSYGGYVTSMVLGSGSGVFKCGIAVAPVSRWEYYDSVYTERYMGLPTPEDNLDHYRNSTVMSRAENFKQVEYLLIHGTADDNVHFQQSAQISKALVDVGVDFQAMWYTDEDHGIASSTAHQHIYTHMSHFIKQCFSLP
Structure (SMILES),IC50 [1] [nM],Stabilty [2],Stabilty [3],Stabilty [4],IC50 (Dipeptidyl peptidase 4) [nM],Activity (HepG2),Activity (HeLa),Activity (HL-60),Activity (CCRF-CEM)
COc1ccc(CCNC(=O)C(=O)[C@@H]2CCCN2C(=O)CNC(=O)c2ccnc3ccccc23)cc1OC,0.43,Unstable,Stable,–,–,inactive,inactive,inactive,inactive
COC(=O)[C@H](CCC(=O)OCc1ccccc1)NC(=O)CNC(=O)C(=O)[C@@H]1CCCN1C(=O)CNC(=O)c1ccnc2ccccc12,–,Unstable,Stable,Unstable,–,inactive,inactive,inactive,inactive
COc1ccc(CNC(=O)C(=O)[C@@H]2CCCN2C(=O)CNC(=O)c2ccnc3ccccc23)cc1OC,0.24,–,Stable,–,–,inactive,inactive,inactive,inactive

# Continued, in another order:
IC50 [1] [nM],Stabilty [2],Stabilty [3],Stabilty [4],IC50 (Dipeptidyl peptidase 4) [nM],Structure (SMILES),Activity (HepG2),Activity (HeLa),Activity (HL-60),Activity (CCRF-CEM)
0.36,Unstable,Stable,Unstable,> 4000,COC(=O)[C@H](Cc1ccccc1)NC(=O)CNC(=O)C(=O)[C@@H]1CCCN1C(=O)CNC(=O)c1ccnc2ccccc12,inactive,inactive,inactive,inactive
–,Unstable,Stable,–,–,O=C(NCc1ccccc1)C(=O)[C@@H]1CCCN1C(=O)CNC(=O)c1ccnc2ccccc12,inactive,inactive,inactive,inactive
